According to ChEMBL document CHEMBL4507263, “Data for DCP probe BAY-474” (2021):

Key:
[1] = target: Serine/threonine-protein kinase 17A (Homo sapiens) (UniProt Q9UEE5); assay: DRAK1 (h) Millipore kinase activity assay; conditions: Compound concentration 1.0 uM
[2] = target: Serine/threonine-protein kinase Sgk1 (Homo sapiens) (UniProt O00141); assay: SGK (h) Millipore kinase activity assay; conditions: Compound concentration 1.0 uM
[3] = target: L-type calcium channel, dihydropyridine site (Cav1.2 alpha-1C) (Homo sapiens, UniProt Q13936); assay: Inhibition of Calcium Channel L-Type, Dihydropyridine at 10 µM in the Eurofins-Panlabs radioligand binding assay (Eurofins_assay_214600); design: ligand concentration 0.1 nM, non-specific ligand with concentration 1 µM Nitrendipine, incubation time 90 min, incubation temperature 25 °C; conditions: Wistar, rat, rat cerebral cortex preparation, probe [3H] Nitrendipine; compound concentration 10 uM; target entry is the homologue from another species
Sequence of L-type calcium channel, dihydropyridine site (Cav1.2 alpha-1C) (Q13936 whole entry): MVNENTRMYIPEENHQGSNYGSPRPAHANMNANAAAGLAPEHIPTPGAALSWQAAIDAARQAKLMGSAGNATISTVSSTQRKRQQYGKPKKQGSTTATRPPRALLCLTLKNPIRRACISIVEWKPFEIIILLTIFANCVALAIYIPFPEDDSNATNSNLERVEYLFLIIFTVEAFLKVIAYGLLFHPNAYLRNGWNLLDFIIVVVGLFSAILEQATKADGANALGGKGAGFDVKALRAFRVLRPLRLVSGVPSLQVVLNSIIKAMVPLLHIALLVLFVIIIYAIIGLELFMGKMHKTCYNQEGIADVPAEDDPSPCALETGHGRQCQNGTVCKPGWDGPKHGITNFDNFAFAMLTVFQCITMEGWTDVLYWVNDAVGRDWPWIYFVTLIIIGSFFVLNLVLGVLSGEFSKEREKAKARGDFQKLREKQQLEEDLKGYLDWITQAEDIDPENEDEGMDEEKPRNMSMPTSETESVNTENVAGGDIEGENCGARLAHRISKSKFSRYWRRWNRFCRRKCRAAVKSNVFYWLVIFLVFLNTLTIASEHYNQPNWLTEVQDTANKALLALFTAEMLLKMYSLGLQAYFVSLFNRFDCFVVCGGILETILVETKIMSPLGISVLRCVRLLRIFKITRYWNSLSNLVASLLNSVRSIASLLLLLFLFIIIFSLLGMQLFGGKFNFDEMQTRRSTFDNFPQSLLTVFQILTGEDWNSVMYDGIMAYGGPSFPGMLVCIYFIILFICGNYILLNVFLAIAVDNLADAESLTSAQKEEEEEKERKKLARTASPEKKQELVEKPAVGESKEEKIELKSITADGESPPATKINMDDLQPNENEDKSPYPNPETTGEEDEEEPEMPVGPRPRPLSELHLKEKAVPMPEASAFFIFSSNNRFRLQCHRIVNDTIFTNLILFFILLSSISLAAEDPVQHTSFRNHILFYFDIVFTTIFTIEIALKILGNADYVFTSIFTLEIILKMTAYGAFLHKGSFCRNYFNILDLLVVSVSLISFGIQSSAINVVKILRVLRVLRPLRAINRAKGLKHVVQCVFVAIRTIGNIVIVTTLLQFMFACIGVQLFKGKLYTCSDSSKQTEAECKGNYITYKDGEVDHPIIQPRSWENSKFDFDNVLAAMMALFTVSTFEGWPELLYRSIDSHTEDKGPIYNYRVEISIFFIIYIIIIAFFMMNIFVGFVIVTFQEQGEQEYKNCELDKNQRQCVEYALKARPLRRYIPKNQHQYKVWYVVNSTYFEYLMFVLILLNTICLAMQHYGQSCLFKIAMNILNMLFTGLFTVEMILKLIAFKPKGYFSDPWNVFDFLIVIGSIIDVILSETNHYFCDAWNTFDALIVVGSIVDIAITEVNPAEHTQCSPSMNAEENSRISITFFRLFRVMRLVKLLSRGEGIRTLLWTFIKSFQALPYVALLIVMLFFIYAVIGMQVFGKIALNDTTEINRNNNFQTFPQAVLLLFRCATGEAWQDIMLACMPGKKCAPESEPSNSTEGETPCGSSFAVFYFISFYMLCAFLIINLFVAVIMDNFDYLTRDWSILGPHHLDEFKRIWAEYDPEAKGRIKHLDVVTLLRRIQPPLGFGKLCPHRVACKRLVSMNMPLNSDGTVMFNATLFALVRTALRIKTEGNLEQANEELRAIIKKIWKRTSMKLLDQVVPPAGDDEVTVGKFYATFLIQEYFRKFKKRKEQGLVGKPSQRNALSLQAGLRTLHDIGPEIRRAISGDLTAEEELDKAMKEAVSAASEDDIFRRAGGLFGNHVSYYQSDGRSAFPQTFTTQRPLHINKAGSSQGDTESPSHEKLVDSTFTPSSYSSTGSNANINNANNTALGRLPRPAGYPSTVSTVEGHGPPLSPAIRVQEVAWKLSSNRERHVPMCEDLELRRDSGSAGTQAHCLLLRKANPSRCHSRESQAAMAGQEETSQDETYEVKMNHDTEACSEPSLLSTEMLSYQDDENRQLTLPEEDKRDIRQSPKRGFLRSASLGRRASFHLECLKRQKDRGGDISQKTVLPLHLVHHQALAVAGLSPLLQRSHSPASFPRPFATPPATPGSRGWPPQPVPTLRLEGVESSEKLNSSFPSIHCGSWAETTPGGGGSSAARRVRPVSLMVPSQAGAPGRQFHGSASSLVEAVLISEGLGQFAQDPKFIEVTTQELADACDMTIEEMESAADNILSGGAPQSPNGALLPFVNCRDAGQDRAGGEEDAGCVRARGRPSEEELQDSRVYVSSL

[4] = target: Cyclin-dependent kinase 3 (Homo sapiens) (UniProt Q00526); assay: CDK3/cyclinE (h) Millipore kinase activity assay; conditions: Compound concentration 1.0 uM
[5] = target: Focal adhesion kinase 1 (Homo sapiens) (UniProt Q05397); assay: FAK (h) Millipore kinase activity assay; conditions: Compound concentration 1.0 uM
[6] = target: Ribosomal protein S6 kinase alpha-4 (Homo sapiens) (UniProt O75676); assay: MSK2 (h) Millipore kinase activity assay; conditions: Compound concentration 1.0 uM
[7] = target: Calcium/calmodulin-dependent protein kinase type IV (Homo sapiens) (UniProt Q16566); assay: CaMKIV (h) Millipore kinase activity assay; conditions: Compound concentration 1.0 uM
[8] = target: Myosin light chain kinase (Homo sapiens) (UniProt Q32MK0); assay: MLCK (h) Millipore kinase activity assay; conditions: Compound concentration 1.0 uM
Sequence of Myosin light chain kinase (Homo sapiens) (Q32MK0 whole entry): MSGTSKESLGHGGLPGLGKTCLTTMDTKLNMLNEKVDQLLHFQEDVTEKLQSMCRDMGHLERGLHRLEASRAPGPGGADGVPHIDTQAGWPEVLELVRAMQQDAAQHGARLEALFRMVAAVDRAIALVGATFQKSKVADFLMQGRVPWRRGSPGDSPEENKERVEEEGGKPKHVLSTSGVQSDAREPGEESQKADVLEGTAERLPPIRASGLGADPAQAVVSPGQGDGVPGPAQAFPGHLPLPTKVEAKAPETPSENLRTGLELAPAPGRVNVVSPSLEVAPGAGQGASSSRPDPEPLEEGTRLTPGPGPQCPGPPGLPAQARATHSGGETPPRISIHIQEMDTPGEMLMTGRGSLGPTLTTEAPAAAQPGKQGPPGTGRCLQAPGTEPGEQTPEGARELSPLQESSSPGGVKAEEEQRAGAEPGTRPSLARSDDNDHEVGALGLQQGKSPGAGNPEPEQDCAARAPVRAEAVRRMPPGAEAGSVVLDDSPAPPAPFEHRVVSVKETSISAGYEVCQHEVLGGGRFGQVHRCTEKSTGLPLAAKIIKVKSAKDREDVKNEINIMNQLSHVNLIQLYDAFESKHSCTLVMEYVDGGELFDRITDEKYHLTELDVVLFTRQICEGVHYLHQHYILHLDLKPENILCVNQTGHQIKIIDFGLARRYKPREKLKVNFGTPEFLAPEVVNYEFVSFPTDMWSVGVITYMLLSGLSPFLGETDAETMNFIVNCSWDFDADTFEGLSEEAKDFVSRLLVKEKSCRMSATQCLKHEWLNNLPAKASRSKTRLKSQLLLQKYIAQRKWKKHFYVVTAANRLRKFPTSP

[9] = target: Tyrosine-protein kinase HCK (Homo sapiens) (UniProt P08631); assay: Hck (h) Millipore kinase activity assay; conditions: Compound concentration 1.0 uM
Sequence of Tyrosine-protein kinase HCK (Homo sapiens) (P08631 2-526 limits assumed): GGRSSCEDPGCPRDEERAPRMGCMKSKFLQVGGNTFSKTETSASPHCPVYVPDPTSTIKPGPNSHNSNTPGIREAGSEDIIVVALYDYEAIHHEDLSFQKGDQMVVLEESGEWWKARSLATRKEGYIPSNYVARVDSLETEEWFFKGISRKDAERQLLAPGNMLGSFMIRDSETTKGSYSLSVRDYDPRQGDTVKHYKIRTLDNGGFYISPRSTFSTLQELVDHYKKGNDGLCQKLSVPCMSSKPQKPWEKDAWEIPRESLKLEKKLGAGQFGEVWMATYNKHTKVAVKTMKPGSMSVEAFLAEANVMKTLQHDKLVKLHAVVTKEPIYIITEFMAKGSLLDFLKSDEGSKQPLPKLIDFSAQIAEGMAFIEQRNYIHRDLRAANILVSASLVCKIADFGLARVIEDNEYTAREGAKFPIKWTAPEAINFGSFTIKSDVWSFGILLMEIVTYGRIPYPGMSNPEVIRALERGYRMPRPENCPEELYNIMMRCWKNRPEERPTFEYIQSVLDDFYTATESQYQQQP

[10] = target: B2 bradykinin receptor (Homo sapiens) (UniProt P30411); conditions: Compound concentration 10.0 uM
[11] = target: Glycogen synthase kinase-3 alpha (Homo sapiens) (UniProt P49840); assay: GSK3alpha (h) Millipore kinase activity assay; conditions: Compound concentration 1.0 uM
[12] = target: Tyrosine-protein kinase ZAP-70 (Homo sapiens) (UniProt P43403); assay: ZAP-70 (h) Millipore kinase activity assay; conditions: Compound concentration 1.0 uM
[13] = target: Casein kinase II subunit alpha' (Homo sapiens) (UniProt P19784); assay: CK2alpha2 (h) Millipore kinase activity assay; conditions: Compound concentration 1.0 uM
[14] = target: ATP-sensitive inward rectifier potassium channel 11 (Cricetulus griseus) (UniProt A0A3L7HHE1); assay: Inhibition of Potassium Channel [KATP] at 10 µM in the Eurofins-Panlabs radioligand binding assay (Eurofins_assay_265600); conditions: Cricetinae; Compound concentration 10.0 uM
Rattus norvegicus = species on record: Rattus norvegicus; conditions: Compound concentration 10.0 uM
[15] = target: Tyrosine-protein kinase Fgr (Homo sapiens) (UniProt P09769); assay: Fgr (h) Millipore kinase activity assay; conditions: Compound concentration 1.0 uM
[16] = target: Serine/threonine-protein kinase MARK1 (Homo sapiens) (UniProt Q9P0L2); assay: MARK1 (h) Millipore kinase activity assay; conditions: Compound concentration 1.0 uM
[17] = target: Ribosomal protein S6 kinase alpha-6 (Homo sapiens) (UniProt Q9UK32); conditions: Compound concentration 1000.0 nM
[18] = target: Protein-tyrosine kinase 2-beta (Homo sapiens) (UniProt Q14289); conditions: Compound concentration 1000.0 nM
[19] = target: Ephrin type-A receptor 4 (Homo sapiens) (UniProt P54764); conditions: Compound concentration 1000.0 nM
[20] = target: Tyrosine-protein kinase Fes/Fps (Homo sapiens) (UniProt P07332); conditions: Compound concentration 1000.0 nM
[21] = target: Mitogen-activated protein kinase kinase kinase 9 (Homo sapiens) (UniProt P80192); conditions: Compound concentration 1000.0 nM
[22] = target: Serine/threonine-protein kinase PLK3 (Homo sapiens) (UniProt Q9H4B4); conditions: Compound concentration 1000.0 nM
[23] = target: Interferon-induced, double-stranded RNA-activated protein kinase (Homo sapiens) (UniProt P19525); conditions: Compound concentration 1000.0 nM
[24] = system: Mast/stem cell growth factor receptor Kit (Homo sapiens), P10721 [D816V]; conditions: Compound concentration 1000.0 nM
[25] = target: Calcium/calmodulin-dependent protein kinase kinase 2 (Homo sapiens) (UniProt Q96RR4); conditions: Compound concentration 1000.0 nM
[26] = target: Serine/threonine-protein kinase Nek1 (Homo sapiens) (UniProt Q96PY6); conditions: Compound concentration 1000.0 nM
[27] = target: Phosphatidylinositol 3-kinase C2 domain-containing subunit gamma (Homo sapiens) (UniProt O75747); conditions: Compound concentration 1000.0 nM
[28] = target: Myotonin-protein kinase (Homo sapiens) (UniProt Q09013); conditions: Compound concentration 1000.0 nM
Sequence of Myotonin-protein kinase (Homo sapiens) (Q09013 whole entry): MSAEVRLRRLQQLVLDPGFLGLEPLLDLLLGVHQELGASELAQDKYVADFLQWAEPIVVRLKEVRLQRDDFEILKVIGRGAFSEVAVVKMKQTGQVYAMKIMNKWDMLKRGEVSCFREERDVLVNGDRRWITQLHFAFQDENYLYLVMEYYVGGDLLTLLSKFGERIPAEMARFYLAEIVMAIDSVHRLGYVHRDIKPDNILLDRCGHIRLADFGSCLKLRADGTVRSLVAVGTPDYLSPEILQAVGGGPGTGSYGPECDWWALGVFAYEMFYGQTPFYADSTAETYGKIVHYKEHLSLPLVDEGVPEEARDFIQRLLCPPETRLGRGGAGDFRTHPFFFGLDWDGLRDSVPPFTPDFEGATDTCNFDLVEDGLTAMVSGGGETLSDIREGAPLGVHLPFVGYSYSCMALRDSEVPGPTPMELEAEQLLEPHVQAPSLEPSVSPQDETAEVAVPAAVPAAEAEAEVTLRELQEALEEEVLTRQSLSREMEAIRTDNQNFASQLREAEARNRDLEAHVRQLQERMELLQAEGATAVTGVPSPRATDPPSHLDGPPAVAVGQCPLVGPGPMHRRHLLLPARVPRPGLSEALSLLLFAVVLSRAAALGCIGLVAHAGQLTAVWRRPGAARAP

[29] = target: Mitogen-activated protein kinase kinase kinase 19 (Homo sapiens) (UniProt Q56UN5); conditions: Compound concentration 1000.0 nM
[30] = target: Mitogen-activated protein kinase kinase kinase kinase 5 (Homo sapiens) (UniProt Q9Y4K4); conditions: Compound concentration 1000.0 nM
[31] = target: Serine/threonine-protein kinase TAO3 (Homo sapiens) (UniProt Q9H2K8); conditions: Compound concentration 1000.0 nM
[32] = target: Myosin light chain kinase (Homo sapiens) (UniProt Q32MK0); conditions: Compound concentration 1000.0 nM
[33] = target: Mitogen-activated protein kinase kinase kinase 3 (Homo sapiens) (UniProt Q99759); conditions: Compound concentration 1000.0 nM
Sequence of Mitogen-activated protein kinase kinase kinase 3 (Homo sapiens) (Q99759 whole entry): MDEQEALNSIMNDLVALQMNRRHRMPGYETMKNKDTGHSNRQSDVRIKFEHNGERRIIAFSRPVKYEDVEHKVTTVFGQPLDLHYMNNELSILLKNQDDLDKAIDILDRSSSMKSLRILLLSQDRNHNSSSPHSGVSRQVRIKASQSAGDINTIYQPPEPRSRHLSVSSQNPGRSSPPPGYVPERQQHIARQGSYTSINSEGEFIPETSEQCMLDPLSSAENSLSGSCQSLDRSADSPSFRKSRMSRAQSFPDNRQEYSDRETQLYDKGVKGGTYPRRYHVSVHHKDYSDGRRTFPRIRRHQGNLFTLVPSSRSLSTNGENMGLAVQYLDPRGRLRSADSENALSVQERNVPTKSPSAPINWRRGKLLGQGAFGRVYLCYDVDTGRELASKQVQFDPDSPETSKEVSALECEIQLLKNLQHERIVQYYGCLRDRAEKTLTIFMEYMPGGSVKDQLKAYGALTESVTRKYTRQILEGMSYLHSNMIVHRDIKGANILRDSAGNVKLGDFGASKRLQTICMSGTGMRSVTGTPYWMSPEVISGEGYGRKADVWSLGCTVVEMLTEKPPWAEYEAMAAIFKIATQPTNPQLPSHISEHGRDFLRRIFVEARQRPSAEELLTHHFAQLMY

[34] = target: TGF-beta receptor type-1 (Homo sapiens) (UniProt P36897); conditions: Compound concentration 1000.0 nM
[35] = system: Mast/stem cell growth factor receptor Kit (Homo sapiens), P10721 [L576P]; conditions: Compound concentration 1000.0 nM
[36] = target: RAC-alpha serine/threonine-protein kinase (Homo sapiens) (UniProt P31749); conditions: Compound concentration 1000.0 nM
[37] = target: Mitogen-activated protein kinase 9 (Homo sapiens) (UniProt P45984); conditions: Compound concentration 1000.0 nM
[38] = target: Serine/threonine-protein kinase pim-1 (Homo sapiens) (UniProt P11309); conditions: Compound concentration 1000.0 nM
[39] = target: Rho-associated protein kinase 2 (Homo sapiens) (UniProt O75116); conditions: Compound concentration 1000.0 nM
[40] = target: ALK tyrosine kinase receptor (Homo sapiens) (UniProt Q9UM73); conditions: Compound concentration 1000.0 nM
[41] = target: Vascular endothelial growth factor receptor 3 (Homo sapiens) (UniProt P35916); conditions: Compound concentration 1000.0 nM
[42] = target: Cyclin-dependent kinase 18 (Homo sapiens) (UniProt Q07002); conditions: Compound concentration 1000.0 nM
[43] = target: Protein kinase C iota type (Homo sapiens) (UniProt P41743); conditions: Compound concentration 1000.0 nM

With `CC1=C(C#N)C(c2ccc3[nH]nc(C)c3c2)C(C#N)=C(C)N1` [BAY-474] the inhibition [1] was -6%, the inhibition [2] was -2% and the inhibition at 90 min, 10 µM [3] was 0% (not active). The inhibition [4] was -4%, the inhibition [5] was 11% and the inhibition [6] was -1%. It also gave an inhibition [7] of -1%, an inhibition [8] of 9% and an inhibition [9] of 16%. For the same molecule, the inhibition [10] was -10%, the inhibition [11] was -3% and the inhibition [12] was 12%. It also gave an inhibition [13] of -2%, an inhibition [14] of 9% and an inhibition (Rattus norvegicus) of 1%. The inhibition [15] was 14% and the inhibition [16] was 11%.
Molecule `CC1=C(C#N)[C@@H](c2ccc3[nH]nc(C)c3c2)C(C#N)=C(c2ccc(Cl)cc2)N1` [BAY-827] has a residual activity [17] of 100%, a residual activity [18] of 100% and a residual activity [19] of 96.4%. The residual activity [20] was 100%, the residual activity [21] was 90.4% and the residual activity [22] was 77.5%. The residual activity [23] was 74.1%, the residual activity [24] was 100% and the residual activity [25] was 86.5%. The residual activity [26] was 100%, the residual activity [27] was 93.9% and the residual activity [28] was 100%. The residual activity [29] was 100%, the residual activity [30] was 54% and the residual activity [31] was 100%. For the same molecule, the residual activity [32] was 100%, the residual activity [33] was 100% and the residual activity [34] was 62.4%. The residual activity [35] was 100%, the residual activity [36] was 100% and the residual activity [37] was 89.5%. For the same molecule, the residual activity [38] was 100%, the residual activity [39] was 91.9% and the residual activity [40] was 84.7%. It also gave a residual activity [41] of 89.5%, a residual activity [42] of 100% and a residual activity [43] of 99.4%.
